Results from article PMC11992225, “Antibacterial compounds against non-growing and intracellular bacteria” (npj Antimicrobials and Resistance, 2025).
pEC50: −log10 of the molar value. Converted amounts (≈) assume the structure as drawn. Where two headings read alike, the source gives them in different places.

Legend:
non-growing UPEC CFT073 [1] = assay: Dilution-regrowth assay (screen, hit validation, dose-response) on stationary-phase UPEC; format: cell-based, Escherichia coli; details: for activity in the dilution-regrowth screen: non-growing UPEC, 20 μM; for OD600 at 6hr, Mean: after dilution into drug-free medium; for pEC50: E. coli, pH 7.4, regrowth delay of non-growing bacteria, 1:4 CA-MHB, 24 h treatment, OD600 6 h after 2500-fold dilution, read-out: EC50
Experimental: The cultures were incubated for 24 h in non-baffled Erlenmeyer flasks at 37 °C with shaking at 200 rpm.
The high-throughput screening (HTS) procedure was based on the protocol by Hazan and colleagues[15] and conducted at the Chemical Biology Consortium Sweden (CBCS) screening facility. […] Each plate included eight wells with 200 nl of 10 mM gatifloxacin, finafloxacin, and kanamycin solutions, along with 8-wells containing 200 nl of DMSO as controls. After 24 h incubation,100 μl of the culture was dispensed into each well of the 384-well plates for screening at a final concentration of 20 μM. The plates were sealed with parafilm and incubated at 37 °C for 24 h in closed humidified boxes, with wet paper towels added to prevent evaporation. […] The plates were incubated at 37 °C for 6 h in humidified boxes, then OD600 was measured using a microplate reader.
For hit validation, bacteria were cultivated, and the dilution-regrowth assay was conducted following the same protocol used in the primary screen. Hit compounds were dispensed into 384-well plates using the Echo® (Labcyte) system, with 200, 100, or 50 nl of a 10 mM solution in DMSO added per well, yielding final screening concentrations of 20, 10, and 5 μM, respectively. OD600 values of regrowing samples were normalized to the mean OD600 of the drug-free control. The testing was conducted in two replicates.
For UPEC, dose–response analysis was conducted at the CBCS screening facility. Bacteria were cultivated, and the dilution-regrowth assay was performed according to the HTS protocol. Compounds were dispensed into 384-well plates using the Echo® (Labcyte) system, and regrowth was assessed by measuring OD600 after 6 h of incubation at 37 °C in humidified boxes. Three biological replicates were performed.
Statistical significance of the drug effects was assessed using a one-way ANOVA followed by Dunnett’s test, comparing each treatment to the drug-free control. Statistical significance of the differences in chemical characteristics between the hit compounds and the Prestwick library was assessed using a Mann–Whitney test. Statistical significance was set at P ≤ 0.05. A five-parameter logistic equation was used for asymmetric sigmoidal curve fitting and for EC50 and IC50 determination. The Venn diagram in Fig. 1F was prepared using BioVenn web application. Characteristics of the chemical and physical properties of Prestwick library compounds were obtained from Supplementary Table S1 from reference. Characteristics of the hit compounds not included in the Prestwick library were retrieved from the PubChem database.

E. coli CFT073 (UPEC) = assay: MIC, standard microdilution assay, growing UPEC; format: cell-based, Escherichia coli; details: E. coli, pH 7.4
Experimental: (§1) Minimal inhibitory concentrations (MICs) were determined using a standard microdilution assay protocol. CA-MHB medium buffered with 40 mM HEPES (pH 7.4) was used to determine the MICs for UPEC, P. aeruginosa, and S. aureus. […] MICs for UPEC were also determined in LPM buffered with 30 mM MES (pH 5.5). For S. flexneri, MICs were determined in tryptic soy broth (TSB). The assay was performed in triplicates.

P. aeruginosa DSM1117 = assay: MIC, standard microdilution assay, growing P. aeruginosa; format: cell-based, Pseudomonas aeruginosa; details: P. aeruginosa, CA-MHB pH 7.4, read-out: MIC (μM) CA-MHB
Experimental: as §1

S. flexneri 5a M90T = assay: MIC in tryptic soy broth, S. flexneri; format: cell-based, Shigella flexneri
Experimental: as §1

non-growing UPEC CFT073 [2] = assay: Dose-dependent killing analysis (CFU spot-plating) of stationary-phase UPEC; format: cell-based, Escherichia coli; details: E. coli in 1:4 CA-MHB (pH 7.4); for Δlog10(CFU/ml): average killing vs before treatment (8.977)
Experimental: To differentiate between these scenarios, we used CFU counting by agar plating to assess the bactericidal effect on non-growing bacteria. […] Conversely, if no significant reduction in CFU is observed, the regrowth delay is due to PAE without killing. […] Fluoroquinolones are known to cause PAE after treatment of growing bacterial cultures.
For survival analysis, bacteria were cultivated as described for the dose–response dilution-regrowth assay. Assays with UPEC were conducted at the CBCS screening facility using 96-well plates with a 200 μl sample volume, and compounds were dispensed using the Echo® (Labcyte) system. P. aeruginosa and S. aureus samples were treated according to the protocol used for the dilution-regrowth experiments. Treated samples were serially diluted 10-fold in PBS, and 10 μl drops were spot-plated onto rectangular LB agar plates using either a Beckman NXP robot (for UPEC) or an Integra VIAFLO96 electronic pipette (for P. aeruginosa and S. aureus). The LB agar plates were incubated overnight at 37 °C and scanned. Colonies were counted at the spots of the lowest dilution where individual colonies could be accurately distinguished. Each colony was manually marked on a separate image layer using the GNU Image Manipulation Program, and counted using NIST’s Integrated Colony Enumerator (NICE 1.4) software. The experiments were performed in three biological replicates.

S. aureus DSM2569 = assay: MIC, standard microdilution assay, growing S. aureus; format: cell-based, Staphylococcus aureus; details: Staphylococcus aureus, DSM2569; S. aureus; CA-MHB pH 7.4; read-out: MIC (μM) CA-MHB
Experimental: as §1

Q: With colistin as the molecule, how does the “activity in the dilution-regrowth screen” value (non-growing UPEC CFT073 [1]) read?
A: The value was “not identified as hits”.

Q: Which results are given for `CCC[C@H](NC(=O)/C(C#N)=C/c1cccc(Br)n1)c1ccccc1` [Degrasyn]?
A: MIC (E. coli CFT073 (UPEC); 1:4 diluted CA-MHB, read-out: MIC (μM) 1:4 CA-MHB): >80 µM; MIC (μM) CA-MHB +PAβN (E. coli CFT073 (UPEC); CA-MHB with 10 μg/ml efflux pump inhibitor PaβN): >80 µM; MIC (E. coli CFT073 (UPEC); CA-MHB, read-out: MIC (μM) CA-MHB): >80 µM; MIC (P. aeruginosa DSM1117): >80 µM; MIC (μM) TSB (S. flexneri 5a M90T; S. flexneri, extracellular bacteria in TSB): >128 µM; OD600 at 6hr, Mean (non-growing UPEC CFT073 [1]; E. coli in 1:4 CA-MHB (pH 7.4), 0.25 μM): 0.603; OD600 at 6hr, Mean (non-growing UPEC CFT073 [1]; E. coli in 1:4 CA-MHB (pH 7.4), 0.5 μM): 0.604; OD600 at 6hr, Mean (non-growing UPEC CFT073 [1]; E. coli in 1:4 CA-MHB (pH 7.4), 1 μM): 0.558; OD600 at 6hr, Mean (non-growing UPEC CFT073 [1]; E. coli in 1:4 CA-MHB (pH 7.4), 2.5 μM): 0.295; OD600 at 6hr, Mean (non-growing UPEC CFT073 [1]; E. coli in 1:4 CA-MHB (pH 7.4), 5 μM): 0.108; OD600 at 6hr, Mean (non-growing UPEC CFT073 [1]; E. coli in 1:4 CA-MHB (pH 7.4), 10 μM): 0.069; OD600 at 6hr, Mean (non-growing UPEC CFT073 [1]; E. coli in 1:4 CA-MHB (pH 7.4), 30 μM): 0.079; OD600 at 6hr, Mean (non-growing UPEC CFT073 [1]; E. coli in LPM (pH 5.5), 0.25 μM): 0.554; OD600 at 6hr, Mean (non-growing UPEC CFT073 [1]; E. coli in LPM (pH 5.5), 0.5 μM): 0.565; OD600 at 6hr, Mean (non-growing UPEC CFT073 [1]; E. coli in LPM (pH 5.5), 1 μM): 0.575; OD600 at 6hr, Mean (non-growing UPEC CFT073 [1]; E. coli in LPM (pH 5.5), 2.5 μM): 0.579; OD600 at 6hr, Mean (non-growing UPEC CFT073 [1]; E. coli in LPM (pH 5.5), 5 μM): 0.583; OD600 at 6hr, Mean (non-growing UPEC CFT073 [1]; E. coli in LPM (pH 5.5), 10 μM): 0.582; OD600 at 6hr, Mean (non-growing UPEC CFT073 [1]; E. coli in LPM (pH 5.5), 30 μM): 0.588; pEC50 (non-growing UPEC CFT073 [1]): 5.65; Log10(CFU/ml), Replicate #1 (non-growing UPEC CFT073 [2]; 0.25 μM): 9.301 Log10(CFU/ml); Log10(CFU/ml), Replicate #2 (non-growing UPEC CFT073 [2]; 0.25 μM): 8.699 Log10(CFU/ml); Log10(CFU/ml), Replicate #3 (non-growing UPEC CFT073 [2]; 0.25 μM): 9.079 Log10(CFU/ml); Δlog10(CFU/ml) (non-growing UPEC CFT073 [2]; 0.25 μM): -0.049 log10(CFU/ml); Log10(CFU/ml), Replicate #1 (non-growing UPEC CFT073 [2]; 0.5 μM): 9.279 Log10(CFU/ml); Log10(CFU/ml), Replicate #2 (non-growing UPEC CFT073 [2]; 0.5 μM): 8.505 Log10(CFU/ml); Log10(CFU/ml), Replicate #3 (non-growing UPEC CFT073 [2]; 0.5 μM): 8.602 Log10(CFU/ml); Δlog10(CFU/ml) (non-growing UPEC CFT073 [2]; 0.5 μM): 0.182 log10(CFU/ml); Log10(CFU/ml), Replicate #1 (non-growing UPEC CFT073 [2]; 1 μM): 9.204 Log10(CFU/ml); Log10(CFU/ml), Replicate #2 (non-growing UPEC CFT073 [2]; 1 μM): 8.477 Log10(CFU/ml); Log10(CFU/ml), Replicate #3 (non-growing UPEC CFT073 [2]; 1 μM): 9.204 Log10(CFU/ml); Δlog10(CFU/ml) (non-growing UPEC CFT073 [2]; 1 μM): 0.016 log10(CFU/ml); Log10(CFU/ml), Replicate #1 (non-growing UPEC CFT073 [2]; 2.5 μM): 9.204 Log10(CFU/ml); Log10(CFU/ml), Replicate #2 (non-growing UPEC CFT073 [2]; 2.5 μM): 8.845 Log10(CFU/ml); Log10(CFU/ml), Replicate #3 (non-growing UPEC CFT073 [2]; 2.5 μM): 8.301 Log10(CFU/ml); Δlog10(CFU/ml) (non-growing UPEC CFT073 [2]; 2.5 μM): 0.194 log10(CFU/ml); Log10(CFU/ml), Replicate #1 (non-growing UPEC CFT073 [2]; 5 μM): 8.954 Log10(CFU/ml); Log10(CFU/ml), Replicate #2 (non-growing UPEC CFT073 [2]; 5 μM): 6.778 Log10(CFU/ml); Log10(CFU/ml), Replicate #3 (non-growing UPEC CFT073 [2]; 5 μM): 7.176 Log10(CFU/ml); Δlog10(CFU/ml) (non-growing UPEC CFT073 [2]; 5 μM): 1.341 log10(CFU/ml); Log10(CFU/ml), Replicate #1 (non-growing UPEC CFT073 [2]; 10 μM): 6.623 Log10(CFU/ml); Log10(CFU/ml), Replicate #2 (non-growing UPEC CFT073 [2]; 10 μM): 6.699 Log10(CFU/ml); Log10(CFU/ml), Replicate #3 (non-growing UPEC CFT073 [2]; 10 μM): 6.532 Log10(CFU/ml); Δlog10(CFU/ml) (non-growing UPEC CFT073 [2]; 10 μM): 2.359 log10(CFU/ml)

Q: How did the MIC (E. coli CFT073 (UPEC); Escherichia coli, 1:4 diluted CA-MHB, read-out: MIC (μM) 1:4 CA-MHB) turn out when `CC[C@H]1OC(=O)C[C@@H](O)[C@H](C)[C@@H](O[C@@H]2O[C@H](C)[C@@H](O[C@H]3C[C@@](C)(O)[C@@H](O)[C@H](C)O3)[C@H](N(C)C)[C@H]2O)[C@@H](CC=O)C[C@@H](C)C(=O)/C=C/C(C)=C/[C@@H]1CO[C@@H]1O[C@H](C)[C@@H](O)[C@@H](OC)[C@H]1OC` [Tylosin] was run?
A: The MIC was 160 µM (≈ 147 µg/mL).

Q: What about the MIC (E. coli CFT073 (UPEC); Escherichia coli, CA-MHB, read-out: MIC (μM) CA-MHB) of the same molecule?
A: The MIC was 160 µM (≈ 147 µg/mL).

Q: And the MIC (P. aeruginosa DSM1117; Pseudomonas aeruginosa, DSM1117)?
A: The MIC was > 160 µM.

Q: And the MIC (S. aureus DSM2569)?
A: The MIC was 1 µM (≈ 0.916 µg/mL).

Q: And the MIC (S. flexneri 5a M90T; Shigella flexneri, 5AM90T, read-out: MIC (μM) TSB)?
A: Its MIC is 128 µM (≈ 117 µg/mL).

Q: And the pEC50 (non-growing UPEC CFT073 [1]; Escherichia coli)?
A: Its pEC50 is 5.14.

Q: How did the “activity in the dilution-regrowth screen” value (non-growing UPEC CFT073 [1]) turn out when `CC[C@H]1OC(=O)[C@H](C)C(=O)[C@H](C)[C@@H](O[C@@H]2O[C@H](C)C[C@H](N(C)C)[C@H]2O)[C@](C)(OC)C[C@@H](C)C(=O)[C@H](C)[C@H]2N(CCCCn3cnc(-c4cccnc4)c3)C(=O)O[C@]12C` [telithromycin] was run?
A: The value was “no activity”.
